According to patent US20200281949A1, “METHODS FOR TREATING CASTRATION-RESISTANT AND CASTRATION-SENSITIVE PROSTATE CANCER” (TOLERO PHARMACEUTICALS, INC., priority 2018, published 2020):
Each block holds one compound with its values, some of them ahead of it.

Tests used:
[1] = system: subcutaneous 22Rv1 human prostate cancer xenograft; assay: Efficacy study in the 22Rv1 xenograft prostate cancer model; format: in vivo, male BALB/c nude mice; conditions: castrated mice, 21 days; doses per Table 1: Cmpd Str (I) 1.25 mg/kg p.o. BID or 10 mg/kg p.o. Q7D; enzalutamide 30 mg/kg p.o. QD; docetaxel 10 mg/kg i.p. Q7D; ABT199 100 mg/kg p.o. QD
Method: The objective of this study was to evaluate the in vivo therapeutic efficacy of the compound of structure (I) or a pharmaceutically acceptable salt or zwitterionic form thereof in the treatment of a subcutaneous 22Rv1 human prostate cancer xenograft model. For the 22Rv1 model, efficacy of the compound of structure (I) was evaluated in male BALB/c nude mice. Cobalt-60 irradiation of all mice was performed 2 days before the tumor inoculation at 2 Gy (1 Gy=100 rads). Each mouse was inoculated at the right flank with 1×10^7 tumor cells in 0.1 ml of PBS mixed with matrigel (1:1). The date of tumor cell inoculation was denoted as day 0.
Castration was performed when mean tumor volume reached approximately 200 mm^3. Mice were anesthetized with ketamine/xylazine; surgical castration was performed via a midline scrotal incision allowing bilateral access to the hemiscrotal contents; after exposing each testicle, a 6-0 Vicryl suture was used to ligate the spermatic cord and then remove the testicle; the scrota and skin was then closed with 6-0 Vicryl suture, separately. Treatments started when the mean tumor volume re-grew to approximately 100 mm^3.
After tumors reached the appropriate size, approximately 100-200 mm^3, mice were randomized into treatment groups 1-11, which are shown in Table 1. Each treatment was administered starting on day 15, at a dosing volume of 5 μL/g and continued for 21 days (or 22 days for groups with treatment at Q7D). For groups with treatment at Q7D×3 weeks, dosing was performed on days 1, 8, and 15 post-randomization, and the study was terminated on day 22 post randomization. The combined treatment intervals were each 0 h, and the interval for BID was 8 h. Randomization was performed based on the “Matched distribution” method (StudyDirector™ software, version 3.1.399.19) randomized block design.
Tumor volumes were measured twice per week after randomization in two dimensions using a caliper, and the volume was expressed in mm^3 using the formula: “V=(L×W×W)/2,” where V is tumor volume, L is tumor length (the longest tumor dimension) and W is tumor width (the longest tumor dimension perpendicular to L). The average tumor volume for each group, as a percentage of the average tumor volume of the control group (group 1), is shown in FIG. 6. […] The percentage shown in FIG. 7 (% T/C) is calculated as mean(T)/mean(C)*100%, with “T” representing tumor volume and “C” representing tumor volume for group 1.
T and C are the mean tumor volume (or weight) of the treated groups and control group (group 1), respectively, on a given day. The percentages shown in FIG. 10 are calculated as % ΔT/C=(mean(T)−mean(T0))/(mean(C)−mean(C0))*100%, with “0” indicating the initial timepoint.

PSA in VCaP cells = assay: PSA protein level by Western blot in VCaP cells; format: cell-based; conditions: 25 nM or 100 nM, 48 hours, vs vehicle
Method: (§1) On the day of the treatment, the media was replaced with 10 mL of fresh media. […] Cells were collected by scraping, washed in PBS, and lysed using sonication in RIPA buffer supplemented with protease and phosphatase inhibitors. […] of protein was loaded into a 4-12% gel, and transferred to a nitrocellulose membrane. Blocking, anti-actin, and secondary staining was done in 5% milk. Anti-PSA antibody was diluted in BSA.

PC3 cells = assay: Cell viability assay in PC3 prostate cancer cells; format: cell-based; conditions: Homo sapiens, PC-3, alvocidib 3.9 nM-1000 nM
Method: (§2) The compound of structure (I), and pharmaceutically acceptable salts and zwitterionic forms thereof, is converted in vivo to alvocidib (see U.S. Patent Publication No. US 2016/0340376, the full disclosure of which is hereby incorporated by reference in its entirety). Therefore, the in vitro effects of alvocidib were evaluated in multiple prostate cancer cell lines with varied sensitivity to androgen. PC3 is an AR-negative prostate cancer cell line with little to no expression of PSA and low sensitivity to androgens. VCAP is a prostate cancer cell line that is positive for ARv7, and can grow in an androgen-independent manner. LNCAP is an androgen-dependent prostate cancer cell line. 22Rv1 is a prostate cancer cell line that is positive for ARv7, has low sensitivity to androgen, and is derived from a xenograft that was serially propagated in mice after castration-induced regression and relapse of the parental, androgen-dependent CWR22 xenograft. […] Cell viability may be assessed, for example, using CellTiter-Glo according to manufacturer protocol.

22Rv1 cells = assay: Cell viability assay in 22Rv1 prostate cancer cells; format: cell-based; conditions: Homo sapiens, alvocidib 0.0026 nM-1000 nM
Method: as §2

[2] = system: androgen receptor (phospho- and total-AR) in 22Rv1 and LNCaP cells; assay: Immunoblotting of androgen receptor in serum-stimulated prostate cancer cells; format: cell-based, human; conditions: 80 nM or 160 nM, 24 hours of treatment, serum stimulated 1 hour before collection
Method: In a first experiment to evaluate the effects of alvocidib on serum stimulated prostate cancer cells, androgen receptor expression was assessed by immunoblotting. […] The prostate cancer cells, 22Rv1 or LNCaP, were treated with DMSO or alvocidib (80 nM or 160 nM), for either 3 hours or 24 hours, and were serum stimulated one hour prior to sample collection (or the cells were serum starved as a control).

VCAP cells = assay: Cell viability assay in VCAP prostate cancer cells; format: cell-based; conditions: Homo sapiens, alvocidib 3.9 nM-1000 nM
Method: as §2

[3] = PK analysis in PC-3 mouse xenograft model (plasma and tumor, LC-MS/MS); format: in vivo; conditions: 24 hours after oral gavage of compound of structure (I) 7.5 or 15 mg/kg; PC-3 xenograft mice
PSA in LNCaP cells = assay: PSA protein level by Western blot in LNCaP cells; format: cell-based, human; conditions: 25 nM or 100 nM, 48 hours, vs vehicle
Method: as §1

[4] = system: RNA Pol II phosphorylation in 22Rv1 cells; assay: RNA Pol II phosphorylation by flow cytometry in 22Rv1 cells; format: cell-based, human; conditions: 80 nM or 160 nM, three hours, 10% serum stimulated 1 hour before collection; vs DMSO
Method: To evaluate the effects of alvocidib on serum-stimulated prostate cancer cells, RNA Polymerase (Pol) II phosphorylation was assessed by flow cytometry. The prostate cancer cells, 22Rv1 cells, were treated with DMSO or alvocidib (80 nM or 160 nM) for three hours, and were serum stimulated (10%) one hour prior to sample collection. Goat anti-rabbit IgG H&L was used as an isotype control.

[5] = Phase I dose-escalation study in patients with advanced solid tumors: plasma PK; format: in vivo, human; conditions: for Tmax: plasma alvocidib, Cohort 5, 6 mg BID oral compound of structure (I) (Formulation No. 401-01)
Method: Plasma PK parameters of compound of structure (I) and alvocidib were evaluated in Cohorts 1-5 at specific timepoints during the study. Blood was collected from patients in Cohorts 1-5 according to the pharmacokinetic sampling schedule described in Table 9.
PK parameters were estimated using standard noncompartmental methods. Actual sample collection times were used rather than scheduled collection times. Plasma concentrations below the limit of quantification were treated as 0. Imbedded missing plasma concentrations (e.g., missing values between two observed values) were estimated using linear […]. This is consistent with using the trapezoidal rule to calculate AUC. Other missing plasma concentrations were excluded from calculations to estimate PK parameters.

[6] = system: TMPRSS2 expression in 22Rv1 cells; assay: Quantitative real-time PCR of TMPRSS2 mRNA in serum-stimulated 22Rv1 cells; format: cell-based, human; conditions: 80 nM or 160 nM, 3 or 24 hours, 22Rv1 cells serum stimulated 1 hour before collection
[7] = system: PSA expression in 22Rv1 cells; assay: PSA expression in serum-stimulated 22Rv1 cells; format: cell-based, human; conditions: 80 nM or 160 nM, 24 hours
Method: The 22Rv1 cells were treated with DMSO or alvocidib (80 nM or 160 nM) for 24 hours, and serum stimulated either 3 hours or 23 hours following treatment (or the cells were serum starved as a control).

LNCaP cells = assay: Cell viability assay in LNCaP prostate cancer cells; format: cell-based; conditions: Homo sapiens, alvocidib 3.9 nM-1000 nM
Method: as §2

[8] = system: LNCaP cells (caspase 3 cleavage); assay: Cell death by caspase 3 cleavage Western blot in LNCaP cells; format: cell-based, human; conditions: 100 nM, 48 hours, 10% serum
Method: LNCaP cells were treated with 100 nM alvocidib for 48 hours in regular 10% serum conditions. Cells were collected by scraping, washed in PBS, and lysed using sonication in RIPA buffer supplemented with protease and phosphatase inhibitors. […] of protein was loaded into a 4-12% gel, and transferred to a PVDF membrane. Blocking and staining was performed in 5% milk. […] Anti-actin was used as a loading control.

Compound: CC(=O)O[C@@]12CO[C@@H]1C[C@H](O)[C@@]1(C)C(=O)[C@H](O)C3=C(C)[C@@H](OC(=O)[C@H](O)[C@@H](NC(=O)OC(C)(C)C)c4ccccc4)C[C@@](O)([C@@H](OC(=O)c4ccccc4)[C@H]21)C3(C)C [docetaxel, 1,7β,10β-trihydroxy-9-oxo-5β,20-epoxytax-11-ene-2α,4,13α-triyl 4-acetate 2-benzoate 13-{(2R,3S)-3-[(tert-butoxycarbonyl)amino]-2-hydroxy-3-phenylpropanoate}]
- anti-cancer activity in the 22Rv1 xenograft model (tumor growth) [1]: not active

- IC50 (PC3 cells): 102 nM
- IC50 (22Rv1 cells): 169 nM
- IC50 (VCAP cells): 34.5 nM
- retention of alvocidib in plasma and tumor [3]: retained in plasma and tumor tissues
- accumulation of alvocidib in plasma ([5]; Cohort 1, 1 mg QD oral Formulation No. 401-01, Subject 104, after 24 hours on day 14): some accumulation
- change in average Cmax and AUC of alvocidib from day 1 to day 14 ([5]; Cohort 2, 1 mg BID oral Formulation No. 401-01): marked increase
- Tmax ([5]; Cycle 1 Day 1, Mean of subjects 501-503): 60 min
- Tmax ([5]; Cycle 1 Day 1, Subject 501): 30 min
- Tmax ([5]; Cycle 1 Day 1, Subject 502): 120 min
- Tmax ([5]; Cycle 1 Day 1, Subject 503): 30 min
- Tmax ([5]; Cycle 1 Day 14, Mean of subjects 501-503): 60 min
- Tmax ([5]; Cycle 1 Day 14, Subject 501): 30 min
- Tmax ([5]; Cycle 1 Day 14, Subject 502): 120 min
- Tmax ([5]; Cycle 1 Day 14, Subject 503): 30 min
- IC50 (LNCaP cells): 31.8 nM
Compound: CN1CC[C@H](c2c(O)cc(O)c3c(=O)cc(-c4ccccc4Cl)oc23)[C@H](O)C1 [alvocidib, 2-(2-chlorophenyl)-5,7-dihydroxy-8-[(3S,4R)-3-hydroxy-1-methylpiperidin-4-yl]chromen-4-one]
- PSA expression at protein level (PSA in VCaP cells): inhibited PSA expression
- phospho- and total-AR protein levels [2]: lowers phospho- and total-AR levels
- PSA expression at protein level (PSA in LNCaP cells): inhibited PSA expression
- RNA Pol II phosphorylation staining (flow cytometry) [4]: dose-dependent reduction
- serum-stimulated induction of TMPRSS2 expression [6]: inhibited serum-stimulated induction of TMPRSS2
- serum stimulated induction of PSA expression [7]: inhibited serum stimulated induction of PSA
- cell death, as indicated by caspase 3 cleavage [8]: induced cell death

Compound: CNC(=O)c1ccc(N2C(=S)N(c3ccc(C#N)c(C(F)(F)F)c3)C(=O)C2(C)C)cc1F [enzalutamide, 4-(3-(4-cyano-3-(trifluoromethyl)phenyl)-5,5-dimethyl-4-oxo-2-thioxoimidazolidin-1-yl)-2-fluoro-N-methylbenzamide]
- anti-cancer activity in the 22Rv1 xenograft model (tumor growth) [1]: not active

Compound: CC1(C)CCC(CN2CCN(c3ccc(C(=O)NS(=O)(=O)c4ccc(NCC5CCOCC5)c([N+](=O)[O-])c4)c(Oc4cnc5[nH]ccc5c4)c3)CC2)=C(c2ccc(Cl)cc2)C1 [venetoclax]
- anti-cancer activity in the 22Rv1 xenograft model (tumor growth) [1]: not active
